From US12565481B2, “6,7-dimethoxy-3-(pyridin-2-yl)quinoline compounds for inhibiting RET” (Guangzhou Baiyunshan Pharmaceutical Holdings Co., Ltd. …, priority 2020, dated 2026)

Experiment: Pharmacokinetics study of mice
Assay type: in vivo
Conditions: mouse, plasma; male CD-1 mice, 2.5 mpk oral administration vs 0.5 mpk intravenous injection
Excerpt: The purpose of this experiment was to study the pharmacokinetics of the test compound in the plasma of male CD-1 mice after intravenous injection and oral administration.
The animals were randomly divided into two groups with 2 males in each group. The compounds were formulated into prescribed preparations. Intravenous formulations were formulated with 5% DMSO/95% (6% hydroxypropyl-β-cyclodextrin) to give a clear solution, and oral preparations were formulated with 0.1% Tween80/0.5% HPMC aqueous solution to give a homogeneous suspension.
Whole blood samples were collected from the saphenous vein of the animals 5 minutes, 15 minutes, 30 minutes, 1 hour, 2 hours, 4 hours, 8 hours, 12 hours, and 24 hours after administration. The whole blood sample was added to the centrifuge tube containing anticoagulant, and centrifuged at 3200 g for 10 minutes at 4° C. The supernatant of plasma was taken, frozen quickly on dry ice, and then stored in a −70±10° C. refrigerator until LC-MS/MS analysis.
WinNonlin™ Version 6.3.0 (Pharsight, Mountain View, Calif.) pharmacokinetic software was used to process the plasma drug concentration data of the compounds with a non-compartmental model. The peak concentration (Cmax), peak time (Tmax) and quantifiable end time were obtained directly from the blood drug concentration-time profile. […]

bioavailability: 48.9%
Structure (SMILES): CCN1CCN(Cc2cc(F)c(NC(=O)Cc3ccc(-c4cnc5cc(OC)c(OC)cc5c4)nc3)cc2C(F)(F)F)CC1 [Compound 1]
